Source: patent US20240109917A1 (ACTELION PHARMACEUTICALS LTD, priority 2020, published 2024)

Assays:
[1] = biological target: His6-TEV-PDGFRβ (557-1016) (Homo sapiens (Human), UniProt P09619); test: PDGFRβ HTRF Assay; format: biochemical; details: read-out: PDGFR HTRF IC50
How it was run: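 HTRF KinEASE-TK readout (665/620 nm ratio) of TK-biotin substrate phosphorylation by His-tagged PDGFRβ kinase domain. Enzyme and inhibitor preincubated 30 min, then ATP/substrate added for 3 h at room temperature before 60 min EDTA quench/detection.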

[2] = biological target: Tb-labeled inactive PDGFRβ (Homo sapiens (Human), UniProt P09619); test: PDGFRβ LanthaScreen Assay; format: binding; details: read-out: PDGFR Lantha IC50
Sequence of Tb-labeled inactive PDGFRβ (P09619 33-1106): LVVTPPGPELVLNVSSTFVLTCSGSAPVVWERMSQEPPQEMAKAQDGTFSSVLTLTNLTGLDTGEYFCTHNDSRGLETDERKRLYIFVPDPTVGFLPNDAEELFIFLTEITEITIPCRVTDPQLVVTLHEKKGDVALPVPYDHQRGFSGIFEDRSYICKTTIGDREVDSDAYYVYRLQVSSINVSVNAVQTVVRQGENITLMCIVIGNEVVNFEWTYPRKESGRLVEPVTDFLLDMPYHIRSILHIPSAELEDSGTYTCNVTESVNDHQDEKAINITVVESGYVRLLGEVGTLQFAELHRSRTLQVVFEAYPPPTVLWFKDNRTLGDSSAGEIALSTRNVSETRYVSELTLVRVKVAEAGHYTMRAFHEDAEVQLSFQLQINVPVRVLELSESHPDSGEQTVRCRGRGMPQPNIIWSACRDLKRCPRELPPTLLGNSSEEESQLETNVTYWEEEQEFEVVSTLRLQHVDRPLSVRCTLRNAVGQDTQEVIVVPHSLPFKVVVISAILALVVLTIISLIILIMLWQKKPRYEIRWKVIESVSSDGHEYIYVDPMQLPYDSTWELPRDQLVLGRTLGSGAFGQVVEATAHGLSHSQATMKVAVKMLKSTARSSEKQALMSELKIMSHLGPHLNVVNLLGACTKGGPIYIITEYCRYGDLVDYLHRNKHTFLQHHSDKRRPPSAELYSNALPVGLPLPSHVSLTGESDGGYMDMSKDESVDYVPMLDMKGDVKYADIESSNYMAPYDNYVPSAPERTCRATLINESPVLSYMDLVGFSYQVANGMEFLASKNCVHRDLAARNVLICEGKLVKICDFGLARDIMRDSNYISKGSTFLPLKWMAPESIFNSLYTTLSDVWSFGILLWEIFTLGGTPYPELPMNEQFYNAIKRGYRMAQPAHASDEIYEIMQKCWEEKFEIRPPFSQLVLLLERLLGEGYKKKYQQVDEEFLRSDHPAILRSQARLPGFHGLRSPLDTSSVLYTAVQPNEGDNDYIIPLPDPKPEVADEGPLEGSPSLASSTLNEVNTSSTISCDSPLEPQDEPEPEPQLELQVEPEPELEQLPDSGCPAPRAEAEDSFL

Sequence of His6-TEV-PDGFRβ (557-1016) (P09619 557-1016): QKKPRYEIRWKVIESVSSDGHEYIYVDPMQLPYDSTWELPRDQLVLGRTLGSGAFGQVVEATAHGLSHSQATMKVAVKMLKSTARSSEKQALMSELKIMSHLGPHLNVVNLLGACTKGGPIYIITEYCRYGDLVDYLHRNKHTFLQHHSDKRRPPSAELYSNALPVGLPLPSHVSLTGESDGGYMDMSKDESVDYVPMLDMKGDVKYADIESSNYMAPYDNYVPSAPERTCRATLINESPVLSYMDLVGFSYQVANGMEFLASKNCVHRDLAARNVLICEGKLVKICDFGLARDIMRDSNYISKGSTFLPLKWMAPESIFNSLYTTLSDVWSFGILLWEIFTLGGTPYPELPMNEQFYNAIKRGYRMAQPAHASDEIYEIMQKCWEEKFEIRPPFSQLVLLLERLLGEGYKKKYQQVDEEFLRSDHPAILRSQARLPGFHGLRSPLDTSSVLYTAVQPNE

## COc1ccncc1-c1cn2ncc(C(=O)Nc3cc(NC(=O)CN4CC(C)(C)C4)cnc3C)c2s1 [Example 40, N-(5-(2-(3,3-dimethylazetidin-1-yl)acetamido)-2-methylpyridin-3-yl)-2-(4-methoxypyridin-3-yl)pyrazolo[5,1-b]thiazole-7-carboxamide]
[1]
  IC50: 0.27 nM
[2]
  IC50: 1.7 nM

## COCCn1cc(-c2cn3ncc(C(=O)Nc4cc(NC(=O)CCN5CCCC5(C)C)cnc4C)c3s2)cn1 [Example 41, N-(5-(3-(2,2-dimethylpyrrolidin-1-yl)propanamido)-2-methylpyridin-3-yl)-2-(1-(2-methoxyethyl)-1H-pyrazol-4-yl)pyrazolo[5,1-b]thiazole-7-carboxamide]
[1]
  IC50: 0.43 nM
[2]
  IC50: 4.7 nM

## Cc1ncc(NC(=O)CN2CCCC23CCC3)cc1NC(=O)c1cnn2cc(-c3cnn4c3COCC4)sc12 [Example 417, N-(5-(2-(5-azaspiro[3.4]octan-5-yl)acetamido)-2-methylpyridin-3-yl)-2-(6,7-dihydro-4H-pyrazolo[5,1-c][1,4]oxazin-3-yl)pyrazolo[5,1-b]thiazole-7-carboxamide]
[1]
  IC50: 0.4 nM
[2]
  IC50: 2.8 nM

## Cc1cc(C(=O)NCCN2CCCC2(C)C)sc1NC(=O)c1cnn2cc(-c3cccnc3)sc12 [Example 36, N-(5-((2-(2,2-dimethylpyrrolidin-1-yl)ethyl)carbamoyl)-3-methylthiophen-2-yl)-2-(pyridin-3-yl)pyrazolo[5,1-b]thiazole-7-carboxamide]
[1]
  IC50: 0.5 nM
[2]
  IC50: 19.3 nM

## COCCn1cc(-c2cn3ncc(C(=O)Nc4cc(NC(=O)C[C@@H]5CCCN5C(C)C)cnc4C)c3s2)cn1 [Example 451, (S)—N-(5-(2-(1-isopropylpyrrolidin-2-yl)acetamido)-2-methylpyridin-3-yl)-2-(1-(2-methoxyethyl)-1H-pyrazol-4-yl)pyrazolo[5,1-b]thiazole-7-carboxamide]
[1]
  IC50: 0.8 nM
[2]
  IC50: 16.1 nM

## Cc1ncc(NC(=O)CN2CC3(CCCCO3)C2)cc1NC(=O)c1cnn2cc(-c3cnn4c3CCC4)sc12 [Example 424, N-(5-(2-(5-oxa-2-azaspiro[3.5]nonan-2-yl)acetamido)-2-methylpyridin-3-yl)-2-(5,6-dihydro-4H-pyrrolo[1,2-b]pyrazol-3-yl)pyrazolo[5,1-b]thiazole-7-carboxamide]
[1]
  IC50: 0.3 nM
[2]
  IC50: 2.2 nM
